Test results: US12590340B2, “Microfluidic plasmonic color reading chips and methods” (priority 2021, dated 2026)
Converted amounts (≈) assume the structure as drawn. “Also recorded” adds a separate entry of the source. Where two headings read alike, the source gives them in different places.

Key:
Amp. Resistant E. coli [1] = assay: antibiotic susceptibility study in spiked human urine on the chip; format: cell-based, Escherichia coli
Experimental: For the spiked human sample experiment, human urine was centrifuged at 5000 rcf for 5 minutes to remove large particles. It was subsequently spiked with 5×10^5 CFU/mL and mixed with a solution of resazurin to a final concentration of 0.02%. No antibiotics were added for the control aliquots, 100 μg/mL ampicillin was added for resistant aliquots and 50 μg/mL Kanamycin was added for susceptible aliquots. The aliquots were incubated at 37° C. different periods starting from 0 minutes incubation till 60 minutes with a time step of 5 minutes.
FIGS. 11A-11F show the results of an antibiotic susceptibility study conducted using human urine spiked with Amp. Resistant E. coli to a final concentration of 5×10^5 CFU/mL. The study utilized 3 aliquot sets of control (no antibiotic), resistant (100 μg/mL Ampicillin), and susceptible (50 μg/mL Kanamycin). […] The trend is highlighted with a white arrow on the 2D chromaticity diagram in FIG. 11B. […] are web plots of the red, green, and blue values analyzed from the bright-field microscopy of the sets. […] Green values increased overtime in the control and resistant sets (88 to 122 for resistant and 82 to 117 for control) showing the change towards green color and indicating the reduction of resazurin to resorufin by viable bacterial cells. […] Resistant E. coli.

Amp. Resistant E. coli [2] = assay: antibiotic susceptibility study in spiked whole blood on the chip; format: cell-based, Escherichia coli; conditions: 100, 50, 20 CFU/mL, 32 μg/mL Ampicilin, up to 150 minutes
Experimental: For the spiked human sample experiment, human whole blood was centrifuged in two steps first at 150 rcf for 10 minutes followed by 7000 rcf for 3 min. It was subsequently spiked with 100, 50 or 20 CFU/mL and mixed with a solution of resazurin to a final concentration of 0.01%. No antibiotics were added for the control aliquots, 32 μg/mL ampicillin was added for resistant aliquots and 16 μg/mL kanamycin was added for susceptible aliquots. The aliquots were incubated at 37° C. different periods starting from 0 minutes incubation till 150 minutes with a time step of 5 minutes.
FIGS. 12A-12B show the results of an antibiotic susceptibility study conducted using whole blood spiked with Amp. Resistant E. coli to a final concentration of 100, 50, 20 CFU/mL in the presence of 32 μg/mL Ampicilin. […] The mean Gvalue/Bvalue (a) can be a credible parameter to follow the sequence in the color change and translate it to a quantifiable data FIG. 12B. […] Quantifiably, the time in which the α-value undergoes a step levitation is corresponding to the time the color transition is visible to the naked eye.

[3] = tested on: Ampicillin resistant Escherichia coli strain; assay: antibiotic susceptibility profiling by resazurin color change on the plasmonic microfluidic chip; format: cell-based; conditions: for increase in green value of the 1-hour incubated aliquots compared to the zero minute incubation aliquot: 100 μg/mL ampicillin, 37° C.; for constant green value throughout the 1-hour incubation: 50 μg/mL kanamycin
Experimental: Ampicillin resistant Escherichia coli strain (Amp resistant E. coli, #211540, Merlan scientific, Ontario, Canada) was cultured overnight at 37° C. in Luria broth (LB) media supplemented with 100 μg/mL Ampicillin (#216858, Merlan scientific, Ontario, Canada). Next, the bacterial concentration was determined by optical density technique using a Spectronic 21D spectrophotometer. Subsequently, aliquots of different concentrations were prepared for the antibiotic susceptibility testing experiments.
(§1) Resistant E. coli, MRSA, and Cipro. Resistant PA respectively was used. The aliquots were incubated at 37° C. for different periods of time starting from 0 minutes incubation to a 60 minutes with a time step of 5 minutes. For susceptible bacterial samples, aliquots of Amp resistant E. coli were prepared (5×10^5 CFU/mL, 10^3 CFU/mL, 10^2 CFU/mL, and 50 CFU/mL), MRSA (5×10^5 CFU/mL), and Cipro. Resistant PA (5×10^5 CFU/mL). […] Resistant E. coli, MRSA, and Cipro. Resistant PA respectively was used. The aliquots were incubated at 37° C. different periods starting from 0 minutes incubation till 60 minutes with a time step of 5 minutes.
(§2) To rapidly detect the sample color change on the platform the reflectance spectra was measured using a Lambda 750 UV/Vis/NIR Spectrophotometer (PerkinElmer). The incident and collected light beams had normal incidence to the platform. Further, optical imaging was performed under highly controlled environment using Nikon Eclipse LV150 (Nikon) with a ×100, 0.9 NA air objective and Nikon digital sight ds-fi1 CCD camera with a white reference of R:0.75 G:1.0 B:2.36.51.
(§3) The microfluidic chip used was similar to that illustrated in FIG. 1B, having two characteristic chambers 1) antibiotic infusing chamber (AI) 103 equipped with bacteria entrapping micropillars 104p; and 2) plasmonic color-sensitive chamber (PCS) 105. The operational procedure of the microfluidic chip was to inject the bacteria containing growth media along with an antibiotic of interest and 0.02% resazurin solution from the inlet to get mixed in the Al mixing and entrapment chamber. Microfluidic chips were incubated for one hour through time intervals of 5 minutes. After incubation, the liquid in the Al chamber 103 was pushed towards the PCS chamber 105 sensing chamber while the bacteria was entrapped behind the micropillars 104p.
To conveniently convert the microscopy results to the feasible CIE color gamut, each picture of the data set loaded to MATLAB was read as a 3 layer matrix, each pixel has 3 components, one per layer, corresponding to its R, G and B value. The processing involved image crop and a sample selection. A simple average calculation was run individually to get an overall value for R, G and B components for each of the 5 samples generated. Following that, the mean across the collection was calculated. The error bar was computed at 1 standard deviation.
All images were processed and analyzed through a MATLAB™ script which allowed the analysis of multiple images simultaneously. The TIFF files were loaded and cropped to 80% of their original dimensions to avoid the coffee-ring effect. An option for the manual crop was also available. For each image, five samples of 480×480 pixels were randomly selected. Subsequently, for each the R, G and B values were averaged followed by the calculation of the mean RGB value and error across them. Succeeding their conversion to XYZ and x, y color systems. The RGB values of each image with its corresponding error bar were plotted against time. Additionally, the x and y values were scattered on the CIE1931 color space to analyze the color change through time.

Cipro. Resistant PA [4] = assay: as above; format: cell-based, Pseudomonas aeruginosa; conditions: 5×10^5 CFU/mL; 2 ug/mL Ciprofloxacin, 4 ug/mL Gentamicin
Experimental: as §1
To rapidly detect the sample color change on the platform the reflectance spectra was measured using a Lambda 750 UV/Vis/NIR Spectrophotometer (PerkinElmer). The incident and collected light beams had normal incidence to the platform. […]
(§4) To conveniently convert the microscopy results to the feasible CIE color gamut, each picture of the data set loaded to MATLAB was read as a 3 layer matrix, each pixel has 3 components, one per layer, corresponding to its R, G and B value. […] Following that, the mean across the collection was calculated. […]
(§5) All images were processed and analyzed through a MATLAB™ script which allowed the analysis of multiple images simultaneously. […]

MRSA [5] = assay: as above; format: cell-based, Staphylococcus aureus; conditions: 5×10^5 CFU/mL, 4 ug/mL Oxacillin; for color response over 1-hour incubation (resistant / susceptible): 1 ug/mL Ciprofloxacin
Experimental: as §1, §2
as §3, with “After incubation, the liquid in the Al chamber 103 was pushed towards the PCS chamber 105 sensing chamber while the bacteria was entrapped behind the micropillars 104p.” left out
as §4, §5

Cipro. Resistant PA [6] = conditions: 60 minutes, 5×10^5 CFU/mL
Text: as §3

Amp resistant E. coli = assay: minimum inhibitory concentration (MIC) study with resazurin on the chip; conditions: for y-value: 60 minutes, 5×10^5 CFU/mL
MRSA [7] = assay: as above; conditions: for y-value: 60 minutes, 5×10^5 CFU/mL
MRSA [8] = assay: standard MIC assay using CLSI protocols; format: cell-based, Staphylococcus aureus; conditions: 96 well plate, overnight culture; 5×10^5 CFU/mL
Experimental: For the Clinical & Laboratory Standards Institute (CLSI) MIC protocol bacteria were streaked on LB agar overnight and resuspended in water aliquot. The aliquot was measured, and the bacteria concentration was adjusted to 10^6 CFU/mL in LB media. A 96 well plate with an antibiotic gradient from 128 μg/ml to 0.125 μg/ml in a 2-fold concentration dilution step was prepared with a positive control with no antibiotics. Next, the bacteria were introduced to each well of the 96 well plate for a final bacteria concentration of 5×10^5 CFU/mL. The well plates were cultured overnight.

[9] = 5×10^5 CFU/mL, 100 μg/mL Ampicillin, 50 μg/mL Kanamycin

CC1(C)S[C@@H]2[C@H](NC(=O)[C@H](N)c3ccccc3)C(=O)N2[C@H]1C(=O)O [Ampicillin]
increase of green values over time (resistant set) (Amp. Resistant E. coli [1]; 100 μg/mL Ampicillin, 1-hour incubation): 88 to 122 | increase in the y-value over time (resistant aliquots) (Amp. Resistant E. coli [1]; 100 μg/mL Ampicillin, 5×10^5 CFU/mL, 1-hour incubation): 0.22 to 0.34 | color response over 1-hour incubation (Amp. Resistant E. coli [1]; [9]): color change trend from dark blue at zero-minute incubation towards cyan; also recorded: color-change from navy blue to green | color response (Amp. Resistant E. coli [2]): color change trend from dark blue at zero-minute incubation towards cyan | increase of y values (2D chromaticity diagram) over 1-hour incubation, control and resistant aliquots ([3]; 100 μg/mL Ampicillin, 5×10^5 CFU/mL): 0.19 to 0.33 | increase in green value of the 1-hour incubated aliquots compared to the zero minute incubation aliquot ([3]; 5×10^5 CFU/mL): 194% | increase in green value of the 1-hour incubated aliquots compared to the zero minute incubation aliquot ([3]; 10^2 CFU/mL): 142% | increase in green value of the 1-hour incubated aliquots compared to the zero minute incubation aliquot ([3]; 10^3 CFU/mL): 140% | increase in green value of the 1-hour incubated aliquots compared to the zero minute incubation aliquot ([3]; 50 CFU/mL): 131% | color response over 1-hour incubation (resistant / susceptible) [3, 9]: color change from initial dark blue to green; also recorded: color-change from navy blue to green

O=C(O)c1cn(C2CC2)c2cc(N3CCNCC3)c(F)cc2c1=O [Ciprofloxacin]
color response over 1-hour incubation (resistant / susceptible) (Cipro. Resistant PA [4]): color change from initial dark blue to green; also recorded: resistant | color response over 1-hour incubation (resistant / susceptible) (MRSA [5]): constant dark blue color; also recorded: susceptible | y-value (Cipro. Resistant PA [6]; 8 μg/mL Ciprofloxacin): 0.38 | y-value (Cipro. Resistant PA [6]; 16 μg/mL Ciprofloxacin): 0.125 | y-value (Cipro. Resistant PA [6]; 32 μg/mL Ciprofloxacin): 0.175

NC[C@H]1O[C@H](O[C@H]2[C@H](O)[C@@H](O[C@H]3O[C@H](CO)[C@@H](O)[C@H](N)[C@H]3O)[C@H](N)C[C@@H]2N)[C@H](O)[C@@H](O)[C@@H]1O [Kanamycin]
constant blue value throughout the 1-hour incubation (Amp. Resistant E. coli [1]; 50 μg/mL Kanamycin): 138.7±5.3 | constant green value throughout the 1-hour incubation (Amp. Resistant E. coli [1]; 50 μg/mL Kanamycin): 76.8±4.5 | constant red value throughout the 1-hour incubation (Amp. Resistant E. coli [1]; 50 μg/mL Kanamycin): 56.6±4.7 | y-value, constant (susceptible set) (Amp. Resistant E. coli [1]; 50 μg/mL Kanamycin, 5×10^5 CFU/mL, 1-hour incubation): 0.205±0.025 | constant green value throughout the 1-hour incubation ([3]; 5×10^5 CFU/mL): 49.26±5.32 | constant green value throughout the 1-hour incubation ([3]; 10^2 CFU/mL): 47.28±1.93 | constant green value throughout the 1-hour incubation ([3]; 10^3 CFU/mL): 48.12±3.21 | constant green value throughout the 1-hour incubation ([3]; 50 CFU/mL): 46.15±2.56 | y-value (Amp resistant E. coli; 4 μg/mL kanamycin): 0.3 | y-value (Amp resistant E. coli; 8 μg/mL kanamycin): 0.125 | y-value (Amp resistant E. coli; 16 μg/mL kanamycin): 0.175 | MIC (Amp resistant E. coli; Escherichia coli, 1 h, read-out: minimum inhibitory concentration (MIC)): 8 mg/L (≈ 16.5 µM)

Cc1onc(-c2ccccc2)c1C(=O)N[C@@H]1C(=O)N2[C@@H]1SC(C)(C)[C@@H]2C(=O)O [Oxacillin]
inhibition of MRSA metabolism (color change from purple to cyan) (MRSA [7]; 16 μg/mL Oxacillin dose): not enough to fully inhibit | y-value (MRSA [7]; 16 μg/mL Oxacillin): 0.3 | y-value (MRSA [7]; 32 μg/mL Oxacillin): 0.125 | y-value (MRSA [7]; 64 μg/mL Oxacillin): 0.13 | MIC (MRSA [7]; Staphylococcus aureus, MRSA, 1 h, read-out: minimum inhibitory concentration (MIC)): 32 mg/L (≈ 79.7 µM) | category according to the CLSI breakpoints (MRSA [7]; from MIC): resistant | MIC by standard MIC assay using CLSI protocols, compared with chip MIC (MRSA [8]): confirmed the obtained MIC | increase of y values (2D chromaticity diagram) over 1-hour incubation, control and resistant aliquots (MRSA [5]): 0.16 to 0.33 | color response over 1-hour incubation (resistant / susceptible) (MRSA [5]): color change from initial dark blue to green; also recorded: resistant

Gentamicin
color response over 1-hour incubation (resistant / susceptible) (Cipro. Resistant PA [4]): constant dark blue color; also recorded: susceptible
